Source: ChEMBL document CHEMBL4311959, “Discovery of a potent p38α/MAPK14 kinase inhibitor: Synthesis, in vitro/in vivo biological evaluation, and docking studies” (Eur J Med Chem, 2019)
pEC50, pIC50: −log10 of the molar value.

Legend:
[1] = biological target: T1, Mitogen-activated protein kinase 14 (Homo sapiens, UniProt Q16539); test: Inhibition of human p38alpha using MBP as substrate by [gamma-33P]-ATP assay
[2] = Stability in human plasma assessed as remaining compound at 10 uM incubated for 30 mins by LC-MS analysis; type: ADME, cell-free; conditions: read-out: Stability
[3] = Stability in rat plasma assessed as remaining compound at 10 uM incubated for 30 mins by LC-MS analysis; type: ADME, cell-free; conditions: read-out: Stability
[4] = Stability in rat plasma assessed as remaining compound at 10 uM incubated for 120 mins by LC-MS analysis; type: ADME, cell-free; conditions: read-out: Stability
[5] = Stability in human plasma assessed as remaining compound at 10 uM incubated for 120 mins by LC-MS analysis; type: ADME, cell-free; conditions: read-out: Stability
[6] = biological target: T1, Mitogen-activated protein kinase 14; test: Inhibition of recombinant Nanoluc-tagged p38alpha (unknown origin) expressed in HEK293 cells incubated for 2 to 3 mins by NanoBRET assay; type: cell-based
[7] = biological target: Fibroblast growth factor receptor 1 (Homo sapiens) (UniProt P11362); test: Inhibition of human FGFR1 at 10 uM using KKKSPGEYVNIEFG as substrate by [gamma-33P]-ATP assay relative to control
[8] = biological target: Receptor tyrosine-protein kinase erbB-4 (Homo sapiens) (UniProt Q15303); test: Inhibition of human ERBB4 at 10 uM using poly[Glu:Tyr] (4:1) as substrate by [gamma-33P]-ATP assay relative to control
[9] = biological target: Receptor tyrosine-protein kinase erbB-2 (Homo sapiens) (UniProt P04626); test: Inhibition of human ERBB2 at 10 uM using poly[Glu:Tyr] (4:1) as substrate by [gamma-33P]-ATP assay relative to control
[10] = biological target: Mitogen-activated protein kinase 8 (Homo sapiens) (UniProt P45983); test: Inhibition of human JNK1 at 10 uM using ATF2 as substrate by [gamma-33P]-ATP assay relative to control
Sequence of Mitogen-activated protein kinase 8 (Homo sapiens) (P45983 whole entry): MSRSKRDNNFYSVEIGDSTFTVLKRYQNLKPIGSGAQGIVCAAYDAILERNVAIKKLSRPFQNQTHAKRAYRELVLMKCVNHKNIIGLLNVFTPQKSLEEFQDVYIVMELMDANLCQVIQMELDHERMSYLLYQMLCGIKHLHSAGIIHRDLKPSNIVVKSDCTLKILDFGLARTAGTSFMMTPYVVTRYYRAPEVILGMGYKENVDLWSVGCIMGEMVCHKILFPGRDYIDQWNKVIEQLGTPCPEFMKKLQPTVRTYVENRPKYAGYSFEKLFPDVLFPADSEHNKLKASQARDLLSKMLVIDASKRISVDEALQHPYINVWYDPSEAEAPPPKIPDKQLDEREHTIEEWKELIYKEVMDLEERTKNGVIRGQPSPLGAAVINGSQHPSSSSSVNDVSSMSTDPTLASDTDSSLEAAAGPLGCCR

[11] = biological target: Hepatocyte growth factor receptor (Homo sapiens, UniProt P08581); test: Inhibition of human c-MET at 10 uM using KKKSPGEYVNIEFG as substrate by [gamma-33P]-ATP assay relative to control
Sequence of Hepatocyte growth factor receptor (P08581 whole entry): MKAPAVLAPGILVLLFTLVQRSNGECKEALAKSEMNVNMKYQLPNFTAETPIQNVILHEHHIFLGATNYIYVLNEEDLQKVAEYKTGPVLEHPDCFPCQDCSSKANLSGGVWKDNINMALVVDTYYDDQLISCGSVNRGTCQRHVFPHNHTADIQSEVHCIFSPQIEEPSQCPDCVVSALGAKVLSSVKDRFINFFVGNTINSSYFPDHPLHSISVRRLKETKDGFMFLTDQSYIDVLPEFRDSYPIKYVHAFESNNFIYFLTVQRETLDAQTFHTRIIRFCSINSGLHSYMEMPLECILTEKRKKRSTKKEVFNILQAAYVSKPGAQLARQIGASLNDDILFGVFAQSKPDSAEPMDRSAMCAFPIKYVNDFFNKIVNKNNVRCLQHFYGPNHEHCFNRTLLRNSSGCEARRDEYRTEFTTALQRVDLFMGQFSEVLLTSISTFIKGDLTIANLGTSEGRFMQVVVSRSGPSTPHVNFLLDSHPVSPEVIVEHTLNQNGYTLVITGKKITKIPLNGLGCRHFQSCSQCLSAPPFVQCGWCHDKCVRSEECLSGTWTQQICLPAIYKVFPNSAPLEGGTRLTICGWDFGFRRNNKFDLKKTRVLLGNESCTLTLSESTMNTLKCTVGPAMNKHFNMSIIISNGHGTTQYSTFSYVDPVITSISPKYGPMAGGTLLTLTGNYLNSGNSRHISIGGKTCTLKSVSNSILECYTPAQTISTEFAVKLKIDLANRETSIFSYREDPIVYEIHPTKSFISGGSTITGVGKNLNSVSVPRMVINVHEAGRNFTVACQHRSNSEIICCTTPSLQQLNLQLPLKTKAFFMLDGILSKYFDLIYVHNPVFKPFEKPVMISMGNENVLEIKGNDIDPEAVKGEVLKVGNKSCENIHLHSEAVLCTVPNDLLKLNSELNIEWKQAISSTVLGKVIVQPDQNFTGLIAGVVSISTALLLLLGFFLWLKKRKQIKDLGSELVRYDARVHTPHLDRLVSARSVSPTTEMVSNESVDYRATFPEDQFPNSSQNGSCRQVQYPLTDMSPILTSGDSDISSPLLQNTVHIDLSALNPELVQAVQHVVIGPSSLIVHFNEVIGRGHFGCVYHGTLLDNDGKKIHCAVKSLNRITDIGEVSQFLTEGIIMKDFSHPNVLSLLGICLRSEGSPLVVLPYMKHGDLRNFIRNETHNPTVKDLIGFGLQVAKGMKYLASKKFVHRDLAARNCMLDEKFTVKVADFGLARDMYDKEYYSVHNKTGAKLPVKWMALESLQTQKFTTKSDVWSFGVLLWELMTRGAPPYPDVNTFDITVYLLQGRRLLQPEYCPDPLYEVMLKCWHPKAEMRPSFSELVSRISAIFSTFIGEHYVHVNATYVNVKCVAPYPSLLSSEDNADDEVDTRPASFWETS

[12] = biological target: Macrophage colony-stimulating factor 1 receptor (Homo sapiens) (UniProt P07333); test: Inhibition of human FMS at 10 uM using poly[Glu:Tyr] (4:1) as substrate by [gamma-33P]-ATP assay relative to control
[13] = biological target: Mast/stem cell growth factor receptor Kit (Homo sapiens) (UniProt P10721); test: Inhibition of human c-KIT at 10 uM using poly[Glu:Tyr] (4:1) as substrate by [gamma-33P]-ATP assay relative to control
[14] = biological target: RAF proto-oncogene serine/threonine-protein kinase (Homo sapiens, UniProt P04049); test: Inhibition of human RAF1 at 10 uM using MEK1 (K97R) as substrate by [gamma-33P]-ATP assay relative to control
Sequence of RAF proto-oncogene serine/threonine-protein kinase (P04049 whole entry): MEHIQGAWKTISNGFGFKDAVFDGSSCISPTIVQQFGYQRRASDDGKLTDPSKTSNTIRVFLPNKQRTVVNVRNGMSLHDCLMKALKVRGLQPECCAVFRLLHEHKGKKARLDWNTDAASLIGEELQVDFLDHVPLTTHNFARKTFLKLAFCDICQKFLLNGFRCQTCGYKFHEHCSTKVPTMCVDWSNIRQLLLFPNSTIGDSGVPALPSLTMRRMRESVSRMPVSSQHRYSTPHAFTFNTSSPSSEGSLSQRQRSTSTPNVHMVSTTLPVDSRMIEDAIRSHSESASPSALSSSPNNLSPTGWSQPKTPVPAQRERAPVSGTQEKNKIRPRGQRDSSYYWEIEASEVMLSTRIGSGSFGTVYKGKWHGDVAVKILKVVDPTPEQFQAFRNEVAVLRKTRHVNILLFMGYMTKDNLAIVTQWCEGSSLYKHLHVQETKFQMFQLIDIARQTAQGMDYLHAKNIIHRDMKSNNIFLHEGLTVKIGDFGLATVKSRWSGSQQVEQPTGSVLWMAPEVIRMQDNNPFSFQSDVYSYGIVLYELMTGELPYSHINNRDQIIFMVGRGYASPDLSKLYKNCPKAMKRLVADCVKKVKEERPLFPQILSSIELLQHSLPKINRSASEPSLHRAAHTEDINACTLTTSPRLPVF

[15] = biological target: Aurora kinase A (Homo sapiens) (UniProt O14965); test: Inhibition of human Aurora A at 10 uM using [H-LRRASLG] as substrate by [gamma-33P]-ATP assay relative to control
[16] = biological target: Tyrosine-protein kinase JAK1 (Homo sapiens) (UniProt P23458); test: Inhibition of human JAK1 at 10 uM using poly[Glu:Tyr] (4:1) as substrate by [gamma-33P]-ATP assay relative to control
[17] = biological target: DNA-dependent protein kinase catalytic subunit (Homo sapiens) (UniProt P78527); test: Inhibition of human DNAPK at 10 uM using EPPLSQEAFADLWKK as substrate by […]-ATP assay relative to control
[18] = biological target: Vascular endothelial growth factor receptor 2 (Homo sapiens) (UniProt P35968); test: Inhibition of human KDR at 10 uM using poly[Glu:Tyr] (4:1) as substrate by [gamma-33P]-ATP assay relative to control
Sequence of Vascular endothelial growth factor receptor 2 (Homo sapiens) (P35968 whole entry): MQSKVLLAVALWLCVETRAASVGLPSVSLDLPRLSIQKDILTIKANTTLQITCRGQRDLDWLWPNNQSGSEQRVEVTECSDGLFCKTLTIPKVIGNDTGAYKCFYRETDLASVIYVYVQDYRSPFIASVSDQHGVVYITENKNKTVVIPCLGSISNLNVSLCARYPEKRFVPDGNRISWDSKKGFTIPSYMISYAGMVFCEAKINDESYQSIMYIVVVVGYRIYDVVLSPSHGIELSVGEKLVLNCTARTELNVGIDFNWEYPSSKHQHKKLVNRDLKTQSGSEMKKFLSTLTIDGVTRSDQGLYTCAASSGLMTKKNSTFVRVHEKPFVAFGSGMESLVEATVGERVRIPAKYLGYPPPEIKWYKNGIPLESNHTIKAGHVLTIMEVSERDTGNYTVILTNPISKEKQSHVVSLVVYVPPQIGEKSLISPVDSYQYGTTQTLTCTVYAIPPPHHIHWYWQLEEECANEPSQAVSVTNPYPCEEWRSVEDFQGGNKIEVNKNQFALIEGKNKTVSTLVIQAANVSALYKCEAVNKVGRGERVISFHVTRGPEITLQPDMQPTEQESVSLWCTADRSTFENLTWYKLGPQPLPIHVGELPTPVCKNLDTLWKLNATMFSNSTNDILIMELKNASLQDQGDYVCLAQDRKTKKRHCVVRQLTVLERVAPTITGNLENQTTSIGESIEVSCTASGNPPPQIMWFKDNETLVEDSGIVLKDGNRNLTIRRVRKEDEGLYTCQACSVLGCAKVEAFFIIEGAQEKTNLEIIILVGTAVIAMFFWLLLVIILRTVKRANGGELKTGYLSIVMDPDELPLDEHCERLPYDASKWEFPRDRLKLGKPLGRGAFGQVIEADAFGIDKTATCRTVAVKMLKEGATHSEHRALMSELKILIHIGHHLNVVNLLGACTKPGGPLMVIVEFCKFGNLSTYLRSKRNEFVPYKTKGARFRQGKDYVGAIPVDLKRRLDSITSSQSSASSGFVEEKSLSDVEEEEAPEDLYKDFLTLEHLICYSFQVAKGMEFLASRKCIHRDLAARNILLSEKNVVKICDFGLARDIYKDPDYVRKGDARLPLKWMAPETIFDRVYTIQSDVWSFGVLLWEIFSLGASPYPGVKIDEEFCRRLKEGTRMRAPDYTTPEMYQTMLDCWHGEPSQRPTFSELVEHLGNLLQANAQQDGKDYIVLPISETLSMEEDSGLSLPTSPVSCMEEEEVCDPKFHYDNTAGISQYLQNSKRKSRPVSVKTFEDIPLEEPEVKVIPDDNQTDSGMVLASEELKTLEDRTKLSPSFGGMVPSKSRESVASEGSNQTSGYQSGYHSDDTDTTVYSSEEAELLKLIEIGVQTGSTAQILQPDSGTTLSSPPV

[19] = biological target: Platelet-derived growth factor receptor beta (Homo sapiens) (UniProt P09619); test: Inhibition of human PDGFRbeta at 10 uM using poly[Glu:Tyr] (4:1) as substrate by [gamma-33P]-ATP assay relative to control
[20] = biological target: PI3-kinase p110-alpha/p85-alpha (Homo sapiens) (UniProt P27986+P42336); test: Inhibition of human PI3K (p110alpha/p85alpha) at 10 uM using PI as substrate by ADP-Glo Assay relative to control; type: protein-complex assay
[21] = biological target: Tyrosine-protein kinase ABL1 (Homo sapiens) (UniProt P00519); test: Inhibition of human ABL1 at 10 uM using EAIYAAPFAKKK as substrate by [gamma-33P]-ATP assay relative to control
[22] = biological target: Serine/threonine-protein kinase A-Raf (Homo sapiens) (UniProt P10398); test: Inhibition of human ARAF at 10 uM using MEK1 as substrate by [gamma-33P]-ATP assay relative to control
Sequence of Serine/threonine-protein kinase A-Raf (Homo sapiens) (P10398 whole entry): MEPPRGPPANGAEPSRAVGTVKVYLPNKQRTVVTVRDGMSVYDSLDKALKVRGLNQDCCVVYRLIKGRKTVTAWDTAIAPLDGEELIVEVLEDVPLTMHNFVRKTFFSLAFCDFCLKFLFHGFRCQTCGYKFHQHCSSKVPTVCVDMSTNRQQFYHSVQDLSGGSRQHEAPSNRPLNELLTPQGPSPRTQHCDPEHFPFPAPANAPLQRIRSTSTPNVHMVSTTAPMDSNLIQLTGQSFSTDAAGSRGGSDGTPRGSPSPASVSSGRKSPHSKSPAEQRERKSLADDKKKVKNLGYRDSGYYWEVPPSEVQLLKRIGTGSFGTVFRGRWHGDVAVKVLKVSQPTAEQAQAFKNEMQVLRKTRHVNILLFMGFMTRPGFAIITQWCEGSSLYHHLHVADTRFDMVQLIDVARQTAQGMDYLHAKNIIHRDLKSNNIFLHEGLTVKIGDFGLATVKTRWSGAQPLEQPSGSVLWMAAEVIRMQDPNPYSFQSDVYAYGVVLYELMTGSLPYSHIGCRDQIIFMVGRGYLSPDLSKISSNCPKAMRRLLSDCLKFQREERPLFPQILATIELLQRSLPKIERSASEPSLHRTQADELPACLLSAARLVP

[23] = biological target: Mitogen-activated protein kinase 1 (Homo sapiens) (UniProt P28482); test: Inhibition of human ERK2 at 10 uM using MBP as substrate by [gamma-33P]-ATP assay relative to control
[24] = biological target: Dual specificity mitogen-activated protein kinase kinase 1 (Homo sapiens) (UniProt Q02750); test: Inhibition of human MEK1 at 10 uM using ERK2 as substrate by [gamma-33P]-ATP assay relative to control
[25] = biological target: Receptor-type tyrosine-protein kinase FLT3 (Homo sapiens) (UniProt P36888); test: Inhibition of human FLT3 at 10 uM using EAIYAAPFAKKK as substrate by [gamma-33P]-ATP assay relative to control
[26] = biological target: Tyrosine-protein kinase JAK2 (Homo sapiens) (UniProt O60674); test: Inhibition of human JAK2 at 10 uM using poly[Glu:Tyr] (4:1) as substrate by [gamma-33P]-ATP assay relative to control
[27] = biological target: ALK tyrosine kinase receptor (Homo sapiens) (UniProt Q9UM73); test: Inhibition of human ALK at 10 uM using poly[Glu:Tyr] (4:1) as substrate by [gamma-33P]-ATP assay relative to control
[28] = biological target: RAC-alpha serine/threonine-protein kinase (Homo sapiens) (UniProt P31749); test: Inhibition of human AKT1 at 10 uM using KGSGSGRPRTSSFAEG as substrate by [gamma-33P]-ATP assay relative to control
[29] = biological target: T1, Mitogen-activated protein kinase 14; test: Inhibition of human p38alpha at 10 uM using MBP as substrate by [gamma-33P]-ATP assay relative to control
[30] = system: Serine/threonine-protein kinase B-raf (Homo sapiens), P15056 [V600E]; test: Inhibition of human BRAF V600E mutant at 10 uM using MEK1 (K97R) as substrate by [gamma-33P]-ATP assay relative to control
[31] = biological target: Serine/threonine-protein kinase B-raf (Homo sapiens) (UniProt P15056); test: Inhibition of human BRAF at 10 uM using MEK1 (K97R) as substrate by [gamma-33P]-ATP assay relative to control
[32] = biological target: Epidermal growth factor receptor (Homo sapiens) (UniProt P00533); test: Inhibition of human EGFR at 10 uM using poly[Glu:Tyr] (4:1) as substrate by [gamma-33P]-ATP assay relative to control
THP-1 = test: Inhibition of LPS-induced TNFalpha production in human THP1 cells incubated for 1 hr followed by LPS stimulation and measured after 4 hrs by TR-FRET method; type: functional, cell-based
[33] = biological target: T1, Mitogen-activated protein kinase 14; test: Inhibition of p38alpha (unknown origin)
Rattus norvegicus = test: Antiinflammatory activity in Sprague-Dawley rat assessed as inhibition of carrageenan-induced paw edema at 50 mg/kg, ip administered 1 hr before carrageenan stimulation and measured after 3 hrs relative to control; type: functional

T1 sequence (Q16539 whole entry): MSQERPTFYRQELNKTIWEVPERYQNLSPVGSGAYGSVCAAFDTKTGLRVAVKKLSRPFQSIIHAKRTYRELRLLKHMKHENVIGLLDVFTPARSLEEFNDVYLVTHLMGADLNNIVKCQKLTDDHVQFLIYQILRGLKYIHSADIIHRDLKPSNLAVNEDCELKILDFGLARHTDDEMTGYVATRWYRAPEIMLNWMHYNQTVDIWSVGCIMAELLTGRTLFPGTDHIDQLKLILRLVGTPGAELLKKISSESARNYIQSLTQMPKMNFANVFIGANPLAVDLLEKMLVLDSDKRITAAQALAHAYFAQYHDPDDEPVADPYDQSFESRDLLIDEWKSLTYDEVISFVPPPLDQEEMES

Question: With `O=C(Nc1ccccc1)Nc1cccc(-n2cc(-c3ccncc3)c(-c3ccc(O)c(Cl)c3)n2)c1` as the compound, how does the pIC50 [1] read?
Answer: < 4.52

Question: With `COc1ccc(-c2nn(-c3cccc(NC(=O)c4ccc(N5CCOCC5)c(C(F)(F)F)c4)c3)cc2-c2ccncc2)cc1Cl` as the compound, how does the pIC50 [1] read?
Answer: 5.22

Question: With `O=C(Nc1cccc(-n2cc(-c3ccncc3)c(-c3ccc(O)c(Cl)c3)n2)c1)c1cc(C(F)(F)F)cc(C(F)(F)F)c1` as the compound, how does the pIC50 [1] read?
Answer: < 4.52

Question: With `COc1ccc(-c2nn(-c3cccc(NC(=O)Nc4cccc(C(F)(F)F)c4)c3)cc2-c2ccncc2)cc1Cl` as the compound, how does the pIC50 [1] read?
Answer: 4.91

Question: With `COc1ccc(-c2nn(-c3cccc(NC(=O)Nc4ccc(Cl)c(Cl)c4)c3)cc2-c2ccncc2)cc1Cl` as the compound, how does the pIC50 [1] read?
Answer: 5.55

Question: What does the source list for `COc1ccc([C@@H]2Sc3ccccc3N(CCN(C)C)C(=O)[C@@H]2OC(C)=O)cc1` [DILTIAZEM]?
Answer: remaining at 0.5 h, 10 µM [2]: 91.5%; remaining at 0.5 h, 10 µM [3]: 86.3%; remaining at 2 h, 10 µM [4]: 45.4%; remaining at 2 h, 10 µM [5]: 89.3%

Question: With `O=C(Nc1cccc(-n2cc(-c3ccncc3)c(-c3ccc(O)c(Cl)c3)n2)c1)Nc1ccc(Cl)c(Cl)c1` as the compound, how does the pIC50 [1] read?
Answer: 4.84

Question: With `COc1ccc(-c2nn(-c3cccc(NC(=O)Nc4cc(C(F)(F)F)cc(C(F)(F)F)c4)c3)cc2-c2ccncc2)cc1Cl` as the compound, how does the pEC50 [6] read?
Answer: 5.71

Question: And the inhibition [7]?
Answer: 4.66%

Question: What about the inhibition [8] of the same compound?
Answer: 20.1%

Question: And the inhibition [9]?
Answer: 0.29%

Question: And the inhibition [10]?
Answer: 22.2%

Question: What about the inhibition [11] of the same compound?
Answer: 48.5%

Question: What about the inhibition [12] of the same compound?
Answer: 5.95%

Question: What about the inhibition [13] of the same compound?
Answer: 2.7%

Question: And the inhibition [14]?
Answer: 40.4%

Question: What about the inhibition [15] of the same compound?
Answer: -3.14%

Question: And the inhibition [16]?
Answer: 9%

Question: And the inhibition [17]?
Answer: 0.81%

Question: What about the inhibition [18] of the same compound?
Answer: 2.65%

Question: And the pIC50 [1]?
Answer: 6.51

Question: What about the inhibition [19] of the same compound?
Answer: -7.69%

Question: And the inhibition [20]?
Answer: 8.99%

Question: What about the inhibition [21] of the same compound?
Answer: -7.26%

Question: And the inhibition [22]?
Answer: 57%

Question: What about the inhibition [23] of the same compound?
Answer: -8.43%

Question: And the inhibition [24]?
Answer: -4.12%

Question: What about the inhibition [25] of the same compound?
Answer: -6.35%

Question: And the inhibition [26]?
Answer: -4.38%

Question: What about the inhibition [27] of the same compound?
Answer: -3.13%

Question: What about the inhibition [28] of the same compound?
Answer: 4.08%

Question: What about the inhibition [29] of the same compound?
Answer: 86.4%

Question: And the inhibition [30]?
Answer: 35.8%

Question: And the inhibition [31]?
Answer: 8.96%

Question: What about the inhibition [32] of the same compound?
Answer: 2.48%

Question: With `O=C(Nc1cccc(-n2cc(-c3ccncc3)c(-c3ccc(O)c(Cl)c3)n2)c1)Nc1ccc(Cl)c(C(F)(F)F)c1` as the compound, how does the pIC50 [1] read?
Answer: < 4.52

Question: With `O=C(Nc1cccc(-n2cc(-c3ccncc3)c(-c3ccc(O)c(Cl)c3)n2)c1)Nc1cc(C(F)(F)F)cc(C(F)(F)F)c1` as the compound, how does the pIC50 [1] read?
Answer: < 4.52

Question: With `O=C(Nc1cccc(-n2cc(-c3ccncc3)c(-c3ccc(O)c(Cl)c3)n2)c1)c1ccc(N2CCOCC2)c(C(F)(F)F)c1` as the compound, how does the pIC50 [1] read?
Answer: < 4.52

Question: With `O=C(Nc1cccc(-n2cc(-c3ccncc3)c(-c3ccc(O)c(Cl)c3)n2)c1)Nc1cccc(C(F)(F)F)c1` as the compound, how does the pIC50 [1] read?
Answer: < 4.52

Question: With `O=C(Nc1cccc(-n2cc(-c3ccncc3)c(-c3ccc(O)c(Cl)c3)n2)c1)c1cccc(C(F)(F)F)c1` as the compound, how does the pIC50 [1] read?
Answer: < 4.52

Question: With `C[S+]([O-])c1ccc(-c2nc(-c3ccc(F)cc3)c(-c3ccncc3)[nH]2)cc1` (stereo not given) [SB-203580] as the compound, how does the pIC50 (THP-1) read?
Answer: 7.70

Question: With `COc1cccc(-c2nn(-c3ccccc3)cc2-c2ccncc2)c1` as the compound, how does the pIC50 [33] read?
Answer: 6.29

Question: With `CCN(CC)CCOC(=O)c1ccc(N)cc1` [PROCAINE] as the compound, how does the remaining at 0.5 h, 10 µM [2] read?
Answer: 1.2%

Question: And the remaining at 0.5 h, 10 µM [3]?
Answer: 89.9%

Question: What about the remaining at 2 h, 10 µM [4] of the same compound?
Answer: 42.7%

Question: What about the remaining at 2 h, 10 µM [5] of the same compound?
Answer: 0.2%

Question: With `COc1ccc(-c2nn(-c3cccc(NC(=O)c4ccc(Cl)c(Cl)c4)c3)cc2-c2ccncc2)cc1Cl` as the compound, how does the pIC50 [1] read?
Answer: 5.89

Question: With `O=C(Nc1cccc(-n2cc(-c3ccncc3)c(-c3ccc(O)c(Cl)c3)n2)c1)c1ccc(Cl)c(Cl)c1` as the compound, how does the pIC50 [1] read?
Answer: 4.84

Question: With `COc1ccc(-c2nn(-c3cccc(NC(=O)Nc4ccccc4)c3)cc2-c2ccncc2)cc1Cl` as the compound, how does the pIC50 [1] read?
Answer: 5.40

Question: Which inhibition in vivo at 50 mg/kg (Rattus norvegicus) does the source give for `O=C(O)Cc1ccccc1Nc1c(Cl)cccc1Cl` [DICLOFENAC] here?
Answer: 71.3%

Question: With `COc1ccc(-c2nn(-c3cccc(NC(=O)c4cc(C(F)(F)F)cc(C(F)(F)F)c4)c3)cc2-c2ccncc2)cc1Cl` as the compound, how does the pIC50 [1] read?
Answer: 5.63

Question: With `COc1ccc(-c2nn(-c3cccc(NC(=O)Nc4ccc(Cl)c(C(F)(F)F)c4)c3)cc2-c2ccncc2)cc1Cl` as the compound, how does the pIC50 [1] read?
Answer: 5.07
